ChEMBL document CHEMBL1127231, “The isolation and in vivo Potent Antitumor activity of clerodane diterpenoid from the oleoresin of the brazilian medicinal plant, copaifera langsdorfi desfon” (1994)

Experiments:
Assay type in all cases: functional
[1] = test system: Mus musculus; test: Antitumor activity was evaluated by the change in life span (day) against IMC carcinoma in mice at a dose of 77.6 mg/kg
[2] = test system: Mus musculus; test: Antitumor activity was evaluated by the increase in life span (I.L.S) against IMC carcinoma in mice at a dose of 77.6 mg/kg
[3] = test system: Mus musculus; test: Antitumor activity was evaluated by the change in body weight against IMC carcinoma in mice at a dose of 77.6 mg/kg
[4] = test system: Mus musculus; test: Antitumor activity was evaluated by the increase in life span (I.L.S) against IMC carcinoma in mice at a dose of 9.0 mg/kg
[5] = test system: Mus musculus; test: Antitumor activity was evaluated by the change in life span (day) against IMC carcinoma in mice at a dose of 9.0 mg/kg
[6] = test system: Mus musculus; test: Antitumor activity was evaluated by the change in body weight against IMC carcinoma in mice at a dose of 9.0 mg/kg
[7] = test system: Mus musculus; test: Antitumor activity was evaluated by the increase in life span (I.L.S) against IMC carcinoma in mice at a dose of 0.27 mg/kg
[8] = test system: Mus musculus; test: Antitumor activity was evaluated by the change in life span (day) against IMC carcinoma in mice at a dose of 0.27 mg/kg
[9] = test system: Mus musculus; test: Antitumor activity was evaluated by the change in body weight against IMC carcinoma in mice at a dose of 0.27 mg/kg
[10] = test system: Mus musculus; test: Antitumor activity was evaluated by the increase in life span (I.L.S) against IMC carcinoma in mice at a dose of 1.8 mg/kg
[11] = test system: Mus musculus; test: Antitumor activity was evaluated by the change in body weight against IMC carcinoma in mice at a dose of 1.8 mg/kg
[12] = test system: Mus musculus; test: Antitumor activity was evaluated by the change in life span (day) against IMC carcinoma in mice at a dose of 1.8 mg/kg
[13] = test system: Mus musculus; test: Antitumor activity was evaluated by the increase in life span (I.L.S) against IMC carcinoma in mice at a dose of 41.1 mg/kg
[14] = test system: Mus musculus; test: Antitumor activity was evaluated by the change in body weight against IMC carcinoma in mice at a dose of 41.1 mg/kg
[15] = test system: Mus musculus; test: Antitumor activity was evaluated by the change in life span (day) against IMC carcinoma in mice at a dose of 41.1 mg/kg
[16] = test system: Mus musculus; test: Antitumor activity was evaluated by the increase in life span (I.L.S) against IMC carcinoma in mice at a dose of 20.7 mg/kg
[17] = test system: Mus musculus; test: Antitumor activity was evaluated by the change in body weight against IMC carcinoma in mice at a dose of 20.7 mg/kg
[18] = test system: Mus musculus; test: Antitumor activity was evaluated by the change in life span (day) against IMC carcinoma in mice at a dose of 20.7 mg/kg
[19] = test system: Mus musculus; test: Antitumor activity was evaluated by the change in body weight against IMC carcinoma in mice at a dose of 30.0 mg/kg
[20] = test system: Mus musculus; test: Antitumor activity was evaluated by the increase in life span (I.L.S) against IMC carcinoma in mice at a dose of 30.0 mg/kg
[21] = test system: Mus musculus; test: Antitumor activity was evaluated by the change in life span (day) against IMC carcinoma in mice at a dose of 30.0 mg/kg

SMILES: C[C@H]1CC[C@]2(C)C(C(=O)O)=CCC[C@H]2[C@]1(C)CCc1ccoc1
- Life span [1]: 14.8 days
- ILS at 77.6 mg/kg [2]: 17%
- Change in body weight [3]: 1.6 g

SMILES: C=C1CC[C@H]2C(C)(C)CCC[C@]2(C)[C@H]1CC/C(C)=C/CO
- ILS at 9 mg/kg [4]: 2%
- Life span [5]: 13 days
- Change in body weight [6]: 1.4 g

SMILES: C=C1CCC[C@@H]2[C@](C)(CC/C(C)=C/CO)[C@@H](C)CC[C@]12C
- ILS at 0.27 mg/kg [7]: -8%
- Life span [8]: 11.7 days
- Change in body weight [9]: 1.9 g

SMILES: CC1=CCC[C@@H]2[C@@](C)(CC/C(C)=C/CO)[C@H](C)CC[C@]12C
- ILS at 1.8 mg/kg [10]: -3%
- Change in body weight [11]: 1.4 g
- Life span [12]: 12.3 days

SMILES: CC1=CCC[C@@H]2[C@@](C)(CC/C(C)=C/CO)[C@H](C)CC[C@@]12C
- ILS at 41.1 mg/kg [13]: 98%
- Change in body weight [14]: 0.1 g
- Life span [15]: 25.2 days

SMILES: C=C1CC[C@@H]2C(C)(C)CCC[C@@]2(C)[C@@H]1CC/C(C)=C/C(=O)O [COPALIC ACID]
- ILS at 20.7 mg/kg [16]: 10%
- Change in body weight [17]: 1.5 g
- Life span [18]: 14 days

SMILES: O=c1[nH]cc(F)c(=O)[nH]1 [FLUOROURACIL]
- Change in body weight [19]: -1.8 g
- ILS at 30 mg/kg [20]: 46%
- Life span [21]: 18.5 days
